Experimental data: patent publication US20090060997A1, “PROCESS FOR PRODUCING A PHARMACEUTICAL PREPARATION FOR THERAPEUTIC TREATMENT OF ENDOMETRIOSIS CONTAINING A COMBINATION OF A GESTAGEN AND (6S)-5-METHYLTETRAHYDROFOLATE” (priority 2007, published 2009)

Tests used:
[1] = system: women with laparoscopically diagnosed endometriosis; experiment: Clinical study in endometriosis: pain scale (Visual Analog Scale, VAS) questionnaire; type: in vivo; settings: 6 months; for reduction in pain (VAS) at the end of the treatment compared to the beginning of the study: DNG 2 mg/day orally, LA 3.75 mg s.c. every 4 weeks
Description: (§1) 128 patients were randomly assigned to the LA group and 124 patients to the DNG group. The efficacy of the therapy was examined, among other ways, with the aid of a pain scale (Visual Analog Scale, VAS) questionnaire that was filled out by the patient.

[2] = parameters: species or system women; settings: in vivo
Description: as §1

ovulation = settings: daily dose; cited from earlier work
[3] = system: persons affected with endometriosis; settings: 2 mg of dienogest daily for 24 weeks; cited from earlier work

Row | drop in bone density [2] | SMILES | reduction in pain (VAS) at the end of the treatment compared to the beginning of the study [1] [mm] | ovulation-inhibiting dose (ovulation) [mg] | statistical analysis of pain reduction versus LA ([1]; DNG 2 mg/day orally vs LA 3.75 mg s.c. every 4 weeks) | result of the treatment of endometriosis [3]
1 | 4% | CCNC(=O)[C@@H]1CCCN1C(=O)[C@H](CCCNC(=N)N)NC(=O)[C@H](CC(C)C)NC(=O)[C@@H](CC(C)C)NC(=O)[C@H](Cc1ccc(O)cc1)NC(=O)[C@H](CO)NC(=O)[C@H](Cc1c[nH]c2ccccc12)NC(=O)[C@H](Cc1c[nH]cn1)NC(=O)[C@@H]1CCC(=O)N1 [LA, leuprorelin acetate] | −46.0 |  |  | 
2 |  | CC(=O)O[C@]1(C(C)=O)CC[C@H]2[C@@H]3C=C(Cl)C4=CC(=O)CC[C@]4(C)[C@H]3CC[C@@]21C [chlormadinone acetate] |  | 1.7 |  | 
3 |  | CC(=O)O[C@]1(C(C)=O)CC[C@H]2[C@@H]3C=C(Cl)C4=CC(=O)[C@@H]5C[C@@H]5[C@]4(C)[C@H]3CC[C@@]21C [cyproterone acetate] |  | 1 |  | 
4 | no reduction in bone density | C[C@]12CCC3=C4CCC(=O)C=C4CC[C@H]3[C@@H]1CC[C@@]2(O)CC#N [dienogest, 17α-cyano-methyl-17-β-hydroxy-estra-4,9-dien-3-one] | −47.5 |  | not inferior to LA | comparable to that with Danazol or with a GnRH agonist
